The source of these data is article PMC5291303 (Science translational medicine, 2016).

The nature of data set [1]: Toxicity studies to determine NOAEL. The format is in vivo, mice. To be noted: plasma AUC at NOAEL vs at MED.
For data set [2], the system named is H1299 cells. Description: Growth inhibition of H1299 cells. In kind it is cell-based.
Another data set concerns HeLa cells. Description: 3-day cell viability assay, HeLa. The format is cell-based.
Data set [3] concerns U-2 osteosarcoma (OS) cells. The data set can be described thus: 3-day viability assay, U-2 OS. In kind it is cell-based.
Data set [4] relates to primary rat cortical neurons. Description: Axonal microtubule immunostaining in primary neurons. The format is cell-based. To be noted: 1 hour; 0.3 to 100 nM; DZ-2384 up to 100 nM, vinorelbine starting at 0.3 nM.
Data set [5] deals with microtubules in LLC-PK1 cells expressing GFP–α-tubulin. Description: Microtubule dynamic instability in live cells. The format is cell-based. To be noted: IC80: 24 nM DZ-2384, 11 nM vinorelbine; mean ± SD.
For data set [6], the system named is tubulin. The data set can be described thus: Surface plasmon resonance binding and competition. To be noted: tubulin (3 μM) preincubated with competitor.
For data set [7], the system named is microtubule polymer mass in H1299 cells. The data set can be described thus: Microtubule sedimentation assay. In kind it is cell-based. To be noted: 4 hours, increasing concentrations.
For data set [8], the system named is purified tubulin. Description: Reconstituted single molecule assay for microtubule dynamics. The format is biochemical. To be noted: for Growth and shrinkage rates: 100 nM DZ-2384.
Data set [9] has as its system U-2 OS osteosarcoma cells. Description: Interphase microtubule immunostaining in U-2 OS cells. The format is cell-based. To be noted: unsynchronized, IC80 (300 nM each), 2 hours.
Data set [10] concerns U-2 OS cells stably expressing an EB3-mCherry fusion protein. The data set can be described thus: Growing microtubule ends in EB3-mCherry U-2 OS cells. The format is cell-based. To be noted: equipotent (IC80) concentrations.
For data set [11] the following is noted: all doses tested, each xenograft model.
For data set [12], the system named is tubulin. To be noted: cited from earlier work.
Another data set can be described thus: in vivo. To be noted: mouse.
Data set [13] in a line: Plasma exposure by LC-MS/MS at MED and NOAEL doses.
Data set [14] has as its system MIA PaCa-2 model of pancreatic ductal adenocarcinoma. Description: MIA PaCa-2 subcutaneous xenograft efficacy. The format is in vivo, mice.
The subject of data set [15] is MDA-MB-231-LM2 breast cancer metastases. Description: MDA-MB-231-LM2 experimental lung metastasis model. In kind it is in vivo, SCID/beige mice. To be noted: for Tumor-free animals: up to 106 days after initial treatment.
Data set [16] relates to RS4;11 model of adult Philadelphia chromosome–negative ALL. The data set can be described thus: RS4. To be noted: P = 0.0028 tumor cells; P = 0.0024 survival. The format is in vivo, mice.
Data set [17] concerns human pancreatic cancer PDX. The data set can be described thus: Pancreatic cancer patient-derived xenograft. To be noted: for Effect on tumor growth: gemcitabine 100 mg/m^2, DZ-2384 36 mg/m^2, alone or combined. The format is in vivo, SCID/beige mice. On the technique in general: A xenograft is tissue or cells of one species grown in another, often human tumour cells in immunodeficient mice.

Data set [18] concerns Rgs16∷GFP;KIC pancreatic model. Description: Rgs16::GFP. The format is in vivo, mice.
Data set [19] relates to caudal, digital and tibial nerves; dorsal root ganglia, sciatic nerve. The data set can be described thus: Peripheral neuropathy study. In kind it is in vivo, Sprague-Dawley rats. To be noted: for Caudal and digital NCV / Tibial nerve onset latency / Caudal and digital NCV after recovery / Histology of dorsal root ganglia and sciatic nerve: at MTD (DZ-2384 30 mg/m^2, docetaxel 120 mg/m^2).

A short description of the next data set: Pharmacokinetics in rats. To be noted: rat; 12 mg/m^2. The format is in vivo, Sprague-Dawley rats.
Data set [20] relates to E18 rat primary cortical neurons. Description: IC50 in primary cortical neurons. The format is cell-based.
For data set [21], the system named is purified tubulin. Description: Electron microscopy of tubulin oligomer curvature. To be noted: 10 μM; compared with vinblastine. In kind it is biochemical.
Data set [22] relates to H1299 cells. The data set can be described thus: DNA content and caspase-3 activation in H1299 cells. The format is cell-based.
Setting [23] is: relative to untreated microtubules.

SMILES strings stand for the structures. A value given as a limit tells only on which side of the number the result lay.

The term IC50 denotes the concentration needed to halve the response being measured. Low values mean greater potency, high ones weaker potency. The IC80 is the point of the concentration-response curve where the effect stands at 80%. A high value points to weaker potency. As usually defined, the AUC is the area under the concentration-time curve, a measure of exposure. Read a high AUC as high exposure. Consider `CCC1=C[C@@H]2CN(C1)Cc1c([nH]c3ccccc13)[C@@](C(=O)OC)(c1cc3c(cc1OC)N(C)[C@H]1[C@@](O)(C(=O)OC)[C@H](OC(C)=O)[C@]4(CC)C=CCN5CC[C@]31[C@@H]54)C2` [Vinorelbine, vinorelbine, reference compound], for which the “Safety margin (range over MIA PaCa-2 and HT-29 models)” value in data set [1] was in the range of 0.7 to 1.0. Besides, the IC50 with H1299 cells [2] (Homo sapiens, NCI-H1299) is 0.015 µM. The molecule also yielded an IC80 with HeLa cells (Homo sapiens, 72 h) of 0.011 µM. The same molecule showed a concentration for an effect of 80% (IC80) in data set [3] (Homo sapiens, U2OS, 72 h) of 0.3 µM. Moreover, in [4], the “Axonal morphology, width and tubulin staining” value was “thinner and/or fragmented axons”. Also, in data set [5], the “%Time per phase Growth” value is 13.1 ± 7.3 (0.0074) %, the “%Time per phase Pause” value is recorded as 48.4 ± 8.1 (0.0141) %, the “%Time per phase Shrink” value is listed as 38.6 ± 8.6 (0.1068) % and the Dynamicity was 10.2 ±1.3 (0.0165) μm/min. Also, in data set [5], the “Growth Distance” value is listed as 2.1 ± 0.2 (0.0036) μm, the “Growth Duration” value was 17.5 ± 5.8 (0.4242) s, the “Shrink Distance” value is listed as 6.4 ± 1.4 (0.2345) μm and the “Shrink Duration” value is on record as 17.6 ± 6.6 (0.1570) s. For the same molecule, the “Shrink Rate” value in data set [5] is 24.6 ± 3.5 (0.1242) μm/min. In addition, in the data set on tubulin [6], the “Competition of tubulin binding to biotinylated DZ-2384 surfaces” value is listed as “blocked its binding”. The Microtubule polymer mass result in [7] is reported as “like with vinorelbine”. Besides, the “Growth and shrinkage rates” value in the data set with purified tubulin [8] (setting [23]) was “Comparable growth and shrinkage rate decreases”. In addition, the Interphase microtubule network entry in data set [9] was “intact microtubules were difficult to observe”. Also, the “Number of growing microtubules” value in data set [10] is on record as “vastly decreasing the number of growing microtubules”. The Body weight loss result in data set [11] is reported as “less than 10%”. Further, the “Affinity compared to vinblastine” value in the data set with tubulin [12] is “lower affinity”. In addition, the exposure (AUC) in “in vivo” worked out at 3380 ng·h/mL. The same molecule yielded an AUC in data set [13] (mouse, in vivo, 30 mg/m^2) of 2310 ng·h/mL.
In the case of `CC(C)[C@H](O)C(=O)N[C@H]1Cc2ccc3c(c2)[C@]2(C4=C(c5nc(CO)co5)N=C(O4)[C@H](C(C)(C)C)NC1=O)c1cc(F)ccc1N[C@@H]2O3` [DZ-2384], the Tumor-free animals entry in data set [14] (9 mg/m^2, ~3 months after treatment) is reported as “all mice were tumor-free”. In addition, the Tumor response entry in data set [14] (4 weekly bolus i.v. administrations) is given as “complete tumor regression”. The “Safety margin (range over MIA PaCa-2 and HT-29 models)” value in data set [1] lay within 24.4 to 53.5. Besides, the Tumor-free animals in [15] (4.5 mg/m^2) was 1 of 5. In addition, in data set [15] (18 mg/m^2), the Tumor-free animals is on record as 2 of 8. Further, the Survival entry in data set [15] (all treated groups, P < 0.0001 vs vehicle) is reported as “significantly increased the survival”. For the same molecule, in data set [15] (starting at the lowest dose tested), the “Effect on lung metastases” value is “regression of all lung metastases”. The “Dose reducing circulating tumor cells (day 23) and increasing survival” value in [16] is at most 0.7 mg/m^2. For the same molecule, the Deaths result in data set [17] (day 29) is on record as “One animal inexplicably died”. For the same molecule, the “Effect on tumor growth” value in data set [17] was “insignificant effects on tumor growth”. The “Body weight loss after the first dose” value in data set [17] (then quickly recovered) turned out to be 11%. The “Tolerability of 30 mg/m^2” value in data set [18] (administered on P23 (no mortality)) is on record as “tolerated”. In [19] (day 24, 12 mg/m^2, vs age-matched controls), the “NCV and onset latency” value was “normal NCV and onset latency”. In [19] (day 24), the “Caudal and digital NCV” value was “slowing of the caudal and distal digital NCV”; the “Tibial nerve onset latency” value was “the tibial nerve was unaffected”. The “Histology of lumbar dorsal root ganglia and sciatic nerve” value in data set [19] (day 44, 12 mg/m^2) is “no changes”. For the same molecule, in data set [19] (day 44), the “Caudal and digital NCV after recovery” value is on record as “remained slow”; the “Histology of dorsal root ganglia and sciatic nerve” value was “did not find histological evidence of neurotoxicity”. The exposure (AUC) in the data set “Pharmacokinetics in rats” turned out to be 4371 ng·h/mL. The molecule also displayed a 50% inhibitory concentration (IC50) in the data set with H1299 cells [2] (H1299 cells) of 0.012 µM. Moreover, the 80% effect level with HeLa cells (3-day cell viability assay) (IC80) was put at 0.004 µM. For the same molecule, the concentration for an effect of 80% (IC80) in data set [3] (U-2 OS, 3-day) is 0.3 µM. For the same molecule, it took 0.043 µM to reach half-maximal inhibition in [20] (IC50). In addition, the “Axonal morphology, width and tubulin staining” value in data set [4] is “minimal qualitative differences”. Further, in data set [5], the “%Time per phase Growth” value is recorded as 42.1 ± 13.1 (0.9109) %, the “%Time per phase Pause” value is listed as 32.7 ± 12.1 (0.7422) %, the “%Time per phase Shrink” value was 25.2 ± 1.4 (0.3079) % and the Dynamicity was 10.4 ±1.4 (0.0335) μm/min. Moreover, in data set [5], the “Growth Distance” value was 2.4 ± 0.3 (0.0631) μm, the “Growth Duration” value is on record as 19.0 ± 6.2 (0.2666) s, the “Growth Rate” value is 8.3 ±1.6 (0.0164) μm/min and the “Shrink Distance” value was 4.7 ± 0.9 (0.3899) μm. For the same molecule, in data set [5], the “Shrink Duration” value is recorded as 10.6 ± 1.3 (0.6087) s and the “Shrink Rate” value was 27.7 ± 2.2 (0.6081) μm/min. Moreover, the “Competition of tubulin binding to biotinylated DZ-2384 surfaces” value with tubulin [6] is listed as “inhibited its binding”. In addition, the Microtubule polymer mass entry in data set [7] is reported as “decrease in microtubule polymer mass”. Further, in the data set with purified tubulin [8] (setting [23]), the “Growth and shrinkage rates” value is recorded as “decreased by about twofold”; the Catastrophe frequencies result is listed as “slightly increased”. The Rescue frequency entry in the data set with purified tubulin [8] (P = 0.0236 at 50 nM) is reported as “twice the rate seen with vinorelbine”. For the same molecule, the “Protofilament curvature (κ)” value in the data set with purified tubulin [21] is reported as “straighter”. Further, in the data set on H1299 cells [22], the “Start of accumulation in G2-M phase” value lay within 4 to 8 h. In addition, the “Start of apoptosis (procaspase-3 cleavage)” value with H1299 cells [22] (after treatment) was found to be 16 h. In data set [9], the Interphase microtubule network entry is reported as “microtubules were present”. In addition, the “Number of growing microtubules” value in data set [10] was “decreased the number of growing microtubules”. The Body weight loss entry in [11] is on record as “less than 10%”. Moreover, in data set [13] (mouse plasma AUC at the MED of the HT-29 model), the “MED Exposure [AUC0-α]” value is 344 ng·h/mL. In addition, the “MED Exposure [AUC0-α]” value in data set [13] (mouse plasma AUC at the MED of the MIA PaCa-2 model) stood at 157 ng·h/mL. Also, the “NOAEL Exposure [AUC0-α]” value in [13] (mouse plasma AUC at the NOAEL dose) stood at 8398 ng·h/mL.
With `CC(=O)O[C@@]12CO[C@@H]1C[C@H](O)[C@@]1(C)C(=O)[C@H](O)C3=C(C)[C@@H](OC(=O)[C@H](O)[C@@H](NC(=O)OC(C)(C)C)c4ccccc4)C[C@@](O)([C@@H](OC(=O)c4ccccc4)[C@H]21)C3(C)C` [docetaxel, reference compound], in data set [19] (day 24), the “Caudal and digital NCV” value was “decrease in NCV in caudal and digital nerves”; the “Tibial nerve onset latency” value is “increase in onset latency in tibial nerves”. In addition, in data set [19] (day 44), the “Caudal and digital NCV after recovery” value was “no improvement in either caudal or digital NCV”; the “Histology of dorsal root ganglia and sciatic nerve” value is “incomplete recovery of the damaged dorsal root ganglia”. The Microtubule polymer mass result in data set [7] is listed as “increased microtubule polymer mass”.
Take `Nc1ccn([C@@H]2O[C@H](CO)[C@@H](O)C2(F)F)c(=O)n1` [gemcitabine, reference compound]: in data set [17], the “Effect on tumor growth” value is recorded as “insignificant effects on tumor growth”. Also, the Clinical observations result in data set [18] (weanling mice) was “not with gemcitabine alone”.
